# Laboratory results as given in patent US20250115943A1, “SYSTEM AND METHOD FOR ANTIMICROBIAL SUSCEPTIBILITY TESTING” (priority 2023, published 2025).
# Read-outs that look alike come from different tables or passages of the source.
# How the values were obtained:
# S. aureus ATCC 29213 [1] = settings: CLSI M100-Ed34E, cited from earlier work
# P. aeruginosa ATCC 27853 [2] = settings: CLSI M100-Ed34E; cited from earlier work
# P. mirabilis LSI 4933 [3] = test: CytoSPAR BLAST antibiotic susceptibility test; assay type: cell-based
# Source text: (§1) The disclosed technology, which is referred to as the CytoSPAR BLAST (Bacteria Labeling Antibiotic Susceptibility Test) system, is used to quantitatively assess bacterial minimal inhibitory concentration of antibiotics for in vitro susceptibility testing. Used as an aid in diagnosis for clinicians in determining potential treatment options for patients suspected of having a microbial infection, BLAST is intended to determine susceptibility of microorganisms to the listed antibiotics (or other antimicrobials) according to manufacturer's standards. The system is intended for use with clinical isolates from liquid culture and colonies grown on agar (solid medium) or directly from urine samples. Certain implementations of BLAST determine antibiotic susceptibility for a wide range of bacteria obtained from various types of patient samples, including samples from individuals suffering from urinary tract infections. The disclosed technology includes a high-throughput assay that directly detects bacterial susceptibility to a library of frequently used antibiotics and covers both Gram-negative and Gram-positive bacteria.
# (§2) The test incorporates a non-canonical amino acid (ncAA) into newly produced proteins. The incorporated ncAA includes a reactive group which allows a specific modification and detection of the living bacteria. The assay involves bacterial incorporation of the ncAA, a chemical reaction between a reactive group and a fluorophore-tagged ligand, and detection of the newly fluorescent-tagged bacteria using a fluorescent plate reader or functionally similar device. The ncAA is added to bacterial growth media and is incorporated into newly synthesized bacterial proteins. The reactive groups on the ncAA are not naturally found in bacteria and act as a specific reactive group for bacteria undergoing active protein synthesis. […] The entire process is performed in a microtiter filter plate for high-throughput scale-up. Alternatively, a normal 96-well plate can also be used in which case centrifugation is used to wash the plate instead of filtration.
# (§3) In an example embodiment, bacterial samples are first diluted and incubated in acclimatization media. After treatment with one or more antimicrobials, the ncAA is added and is taken up by living bacteria during protein biosynthesis in a process called labeling. […] The Click-Chemistry reaction between the alkyne group of the ncAA and the azide group of the fluorophore-tagged ligand requires the presence of copper in the reduced state-copper (I). In other implementations, the functional groups of the click chemistry reaction can be changed so that the ncAA has the azide group and the dye has the alkyne group. […] Other reducing agents may be used in the BLAST assay, for example, aldoses (sugars) including glyceraldehyde, glucose, and ribose to replace sodium ascorbate. Likewise, alternate chelators may be used (e.g., histidine in place of BTTAA). In some implementations, metal-free click chemistry reactions are performed without using copper.
# (§4) Using the BLAST system, tests can be performed on isolates or direct urine samples. Isolates may be from urine, blood, or other body fluids. Isolated bacteria may be either Gram-positive or Gram-negative. In an example implementation, living bacterial samples in acclimatization media (Buffer A) are distributed in a microtiter filter plate, wherein certain predetermined wells include antibiotics of interest at different concentrations. These antibiotics are arrayed with increasing concentrations in adjacent wells so that the bacterial response can be measured against each specific concentration. The response is measured quantitatively, and a value that corresponds to the ability of the bacteria to metabolize and grow is measured.
# K. pneumoniae LSI CT1045 [4] = test: CytoSPAR BLAST antibiotic susceptibility test; assay type: cell-based
# Source text: as §1, §2, §3, §4
# K. pneumoniae LSI 4552 [5] = test: CytoSPAR BLAST antibiotic susceptibility test; assay type: cell-based
# Source text: as §1, §2, §3, §4
# P. aeruginosa ATCC 27853 [6] = test: CytoSPAR BLAST antibiotic susceptibility test; assay type: cell-based; settings: for S, I, R: susceptible, intermediate, resistant category
# Source text: as §1, §2, §3, §4
# E. coli LSI 770 = test: CytoSPAR BLAST antibiotic susceptibility test; assay type: cell-based; settings: E. coli LSI 770; for MIC: Escherichia coli, LSI770
# Source text: as §1, §2, §3, §4
# S. aureus ATCC 29213 [7] = test: CytoSPAR BLAST antibiotic susceptibility test; assay type: cell-based; settings: for S, I, R: susceptible, intermediate, resistant category; for MIC: Staphylococcus aureus
# Source text: as §1, §2, §3, §4
# P. mirabilis LSI 4698 = test: CytoSPAR BLAST antibiotic susceptibility test; assay type: cell-based
# Source text: as §1, §2, §3, §4
# E. coli ATCC 25922 [8] = test: CytoSPAR BLAST antibiotic susceptibility test; assay type: cell-based; settings: for MIC: Escherichia coli; for S, I, R: susceptible, intermediate, resistant category
# Source text: as §1, §2, §3, §4
# E. coli ATCC 25922 [9] = test: reference broth microdilution (rBMD); assay type: cell-based; settings: Escherichia coli, ATCC25922, Table 7, geometric mean MIC rounded to nearest 2-fold dilution, n = 3
# Method: (§5) Following optimization of the BLAST assay, two other tests were performed in which 12 antibiotics (covering different classes) and 8 bacterial strains (Gram-positive and Gram-negative) were assayed using the same method as described above. Different bacterial strains were tested against different antibiotics and for each pair tested, the BLAST MIC value was compared to the CLSI QC range where available, or to the reference broth microdilution (rBMD) MIC which was determined in parallel with the BLAST assay following the CLSI protocols (see references [9]).
# The inoculated urine cultures were incubated overnight at 35+2° C. Each urine culture was centrifuged, and the sediment used to prepare the BLAST inoculum of 5.0×10^5 CFU/mL to start the assay as described in the protocols section. […] The spiked urine samples were tested in parallel with isolates and the resultant BLAST MIC values were compared. In addition to the BLAST test, all the samples were also tested using the reference broth microdilution (rBMD) method and the MIC values were compared.
# P. mirabilis LSI 4933 [10] = test: reference broth microdilution (rBMD); assay type: cell-based; settings: Proteus mirabilis, LSI4933
# Method: as §5
# K. pneumoniae LSI CT1045 [11] = test: reference broth microdilution (rBMD); assay type: cell-based; settings: Klebsiella pneumoniae, LSICT1045
# Method: as §5
# K. pneumoniae LSI 4552 [12] = test: reference broth microdilution (rBMD); assay type: cell-based; settings: Klebsiella pneumoniae, LSI4552
# Method: as §5
# E. coli = settings: cited from earlier work
# [13] = test system: E. coli strain #551 (CDC); test: microbe, parasite or virus in culture; settings: Escherichia coli, read-out: BLAST MIC, E. coli resistant strain (CDC 551); […]10^8 CFUs/mL; cut-off 0.7; FIG. 11C
# Source text: (§6) The disclosed technology, which is referred to as the CytoSPAR BLAST (Bacteria Labeling Antibiotic Susceptibility Test) system, is used to quantitatively assess bacterial minimal inhibitory concentration of antibiotics for in vitro susceptibility testing. Used as an aid in diagnosis for clinicians in determining potential treatment options for patients suspected of having a microbial infection, BLAST is intended to determine susceptibility of microorganisms to the listed antibiotics (or other antimicrobials) according to manufacturer's standards. The system is intended for use with clinical isolates from liquid culture and colonies grown on agar (solid medium) or directly from urine samples. […]
# (§7) The test incorporates a non-canonical amino acid (ncAA) into newly produced proteins. […] The assay involves bacterial incorporation of the ncAA, a chemical reaction between a reactive group and a fluorophore-tagged ligand, and detection of the newly fluorescent-tagged bacteria using a fluorescent plate reader or functionally similar device. […]
# (§8) Using the BLAST system, tests can be performed on isolates or direct urine samples. […] These antibiotics are arrayed with increasing concentrations in adjacent wells so that the bacterial response can be measured against each specific concentration. […]
# E. coli strain #14 (CDC) [14] = test: microbe, parasite or virus in culture; settings: Escherichia coli, read-out: BLAST MIC
# Source text: as §6, §7, §8
# [15] = test system: E. coli, S. saprophyticus and S. aureus; settings: for E. coli, S. saprophyticus and S. aureus as reported by the FDA and CLSI (Table 5); cited from earlier work
# E. coli strain #14 (CDC) [16] = settings: strain designation, not a BLAST readout; cited from earlier work
# [17] = test system: E. coli strain #551 (CDC); settings: strain designation, not a BLAST readout; cited from earlier work
# S. saprophyticus = settings: cited from earlier work
# E. coli ATCC 25922 [18] = settings: E. coli strain #25922 (ATCC); strain designation, not a BLAST readout; cited from earlier work
# [19] = susceptible, intermediate, resistant category
smiles,measurement,setting,value
"C[C@H]1COc2c(N3CCN(C)CC3)c(F)cc3c(=O)c(C(=O)O)cn1c23 [Levofloxacin, levofloxacin]",MIC CLSI QC Range,S. aureus ATCC 29213 [1]; listed as levofloxacin,0.063 to 0.5 mg/L
same,MIC CLSI QC Range,S. aureus ATCC 29213 [1],0.06 to 0.5 mg/L
same,MIC CLSI QC Range,P. aeruginosa ATCC 27853 [2],0.5 to 4.0 mg/L
same,MIC,"P. mirabilis LSI 4933 [3]; Proteus mirabilis, LSI4933, Table 7",1.1 mg/L
same,"S, I, R",P. mirabilis LSI 4933 [3]; [19],Susceptible
same,MIC,"K. pneumoniae LSI CT1045 [4]; Klebsiella pneumoniae, LSICT1045, Table 7",> 71 mg/L
same,"S, I, R",K. pneumoniae LSI CT1045 [4]; [19],Resistant
same,MIC,"K. pneumoniae LSI 4552 [5]; Klebsiella pneumoniae, LSI4552, Table 7",0.06 mg/L
same,"S, I, R",K. pneumoniae LSI 4552 [5]; [19],Susceptible
same,MIC,"P. aeruginosa ATCC 27853 [6]; Pseudomonas aeruginosa, ATCC27853, Table 6, optimized BLAST",8 mg/L
same,"S, I, R",P. aeruginosa ATCC 27853 [6],Susceptible
same,"S, I, R",E. coli LSI 770; [19],Resistant
same,MIC,"E. coli LSI 770; Table 7, read-out: MIC BLAST",36 mg/L
same,MIC,"E. coli LSI 770; Table 8, isolates, 5 × 10^5 CFU/mL, read-out: MIC BLAST Isolates",35.6 mg/L
same,MIC,"E. coli LSI 770; Table 8, spiked urine sample, 5 × 10^5 CFU/mL, read-out: MIC BLAST Spiked Urine",35.6 mg/L
same,"S, I, R",S. aureus ATCC 29213 [7]; S. aureus ATCC 29213,Susceptible
same,MIC,"S. aureus ATCC 29213 [7]; ATCC29213, S. aureus ATCC 29213, 5×10^6 CFUs/mL, cutoff 0.8, FIGS. 19-21, read-out: BLAST MIC",0.125 mg/L
same,MIC,"S. aureus ATCC 29213 [7]; ATCC29213, Table 7, S. aureus ATCC 29213, read-out: MIC BLAST",0.28 mg/L
same,MIC,"S. aureus ATCC 29213 [7]; ATCC29213, Table 8, S. aureus ATCC 29213, isolates, 5 × 10^5 CFU/mL, read-out: MIC BLAST Isolates",0.28 mg/L
same,MIC,"S. aureus ATCC 29213 [7]; ATCC29213, Table 8, S. aureus ATCC 29213, spiked urine sample, 5 × 10^5 CFU/mL, read-out: MIC BLAST Spiked Urine",0.28 mg/L
same,MIC,"P. mirabilis LSI 4698; Proteus mirabilis, LSI4698, Table 7",8.9 mg/L
same,"S, I, R",P. mirabilis LSI 4698; [19],Susceptible
same,MIC,"E. coli ATCC 25922 [8]; ATCC25922, Table 7, read-out: MIC BLAST",0.01 mg/L
same,MIC,"E. coli ATCC 25922 [8]; ATCC25922, read-out: MIC BLAST Isolates, Table 8, isolates, 5 × 10^5 CFU/mL",0.01 mg/L
same,MIC,"E. coli ATCC 25922 [8]; ATCC25922, read-out: MIC BLAST Spiked Urine, Table 8, spiked urine sample, 5 × 10^5 CFU/mL",0.01 mg/L
same,"S, I, R",E. coli ATCC 25922 [8],Susceptible
same,MIC,E. coli ATCC 25922 [9],0.02 mg/L
same,MIC,P. mirabilis LSI 4933 [10],1 mg/L
same,MIC,K. pneumoniae LSI CT1045 [11],128 mg/L
same,MIC,K. pneumoniae LSI 4552 [12],0.12 mg/L
same,breakpoint,E. coli; stated with the CLSI QC range in FIG. 22 legend,0.5 µg/mL
"O=C1CN(/N=C/c2ccc([N+](=O)[O-])o2)C(=O)N1 [Nitrofurantoin, nitrofurantoin]",MIC,[13],32 mg/L
same,MIC,E. coli strain #14 (CDC) [14],32 mg/L
same,CLSI QC range,[15],4 to 16 µg/mL
same,"S, I, R",P. aeruginosa ATCC 27853 [6],Resistant
same,"S, I, R",S. aureus ATCC 29213 [7]; S. aureus ATCC 29213,Susceptible
same,MIC,"S. aureus ATCC 29213 [7]; ATCC29213, S. aureus ATCC 29213, 5×10^5 CFUs/mL, FIG. 15, read-out: BLAST MIC",4 mg/L
same,MIC,"S. aureus ATCC 29213 [7]; ATCC29213, Table 6, S. aureus ATCC 29213, optimized BLAST, cutoff 0.8, read-out: MIC BLAST",4 mg/L
same,"S, I, R",E. coli ATCC 25922 [8],Susceptible
same,susceptibility of the strain as listed,E. coli strain #14 (CDC) [16],Intermediate resistance
same,susceptibility of the strain as listed,[17],Resistant
same,CLSI breakpoint I,E. coli; intermediate,64 µg/mL
same,FDA breakpoint I,E. coli; intermediate,64 µg/mL
same,CLSI breakpoint S,E. coli; susceptible,32 µg/mL
same,FDA breakpoint S,E. coli; susceptible,32 µg/mL
same,CLSI breakpoint I,S. saprophyticus; intermediate,64 µg/mL
same,FDA breakpoint I,S. saprophyticus; intermediate,64 µg/mL
same,CLSI breakpoint S,S. saprophyticus; susceptible,32 µg/mL
same,FDA breakpoint S,S. saprophyticus; susceptible,32 µg/mL
same,susceptibility of the strain as listed,E. coli ATCC 25922 [18],Susceptible
